For the assay, the target named is T1, Androgen receptor (Homo sapiens) (UniProt P10275).
T1 sequence (whole entry): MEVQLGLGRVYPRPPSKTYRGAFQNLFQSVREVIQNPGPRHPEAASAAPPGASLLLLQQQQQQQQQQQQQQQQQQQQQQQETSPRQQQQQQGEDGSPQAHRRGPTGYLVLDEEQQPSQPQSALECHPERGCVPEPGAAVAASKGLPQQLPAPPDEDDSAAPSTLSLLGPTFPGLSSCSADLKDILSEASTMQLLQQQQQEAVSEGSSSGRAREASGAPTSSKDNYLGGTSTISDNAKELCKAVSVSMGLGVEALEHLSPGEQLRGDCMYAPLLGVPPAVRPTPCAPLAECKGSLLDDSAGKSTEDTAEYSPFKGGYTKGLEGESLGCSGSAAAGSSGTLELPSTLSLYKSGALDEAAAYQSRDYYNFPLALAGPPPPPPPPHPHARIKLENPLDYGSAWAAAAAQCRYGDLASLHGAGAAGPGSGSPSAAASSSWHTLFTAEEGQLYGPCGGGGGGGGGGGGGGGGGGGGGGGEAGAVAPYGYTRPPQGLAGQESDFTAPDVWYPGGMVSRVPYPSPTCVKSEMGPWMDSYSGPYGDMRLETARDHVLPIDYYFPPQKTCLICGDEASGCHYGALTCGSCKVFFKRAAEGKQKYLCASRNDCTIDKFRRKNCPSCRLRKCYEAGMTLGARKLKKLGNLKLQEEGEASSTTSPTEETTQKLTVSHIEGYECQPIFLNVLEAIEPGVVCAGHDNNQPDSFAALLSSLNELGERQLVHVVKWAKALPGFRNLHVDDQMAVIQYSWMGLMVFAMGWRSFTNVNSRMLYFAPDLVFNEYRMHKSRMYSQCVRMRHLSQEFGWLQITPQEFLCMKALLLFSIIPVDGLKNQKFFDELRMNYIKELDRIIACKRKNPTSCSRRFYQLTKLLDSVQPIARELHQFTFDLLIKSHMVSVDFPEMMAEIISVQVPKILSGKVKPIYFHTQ
Particulars: CV-1.

Description: Relative stimulatory activity compared to 5-alpha-DHT in CV-1 cells expressing androgen receptor

On to `CC12CC[C@@H]3C4CCC(=O)CC4C[C@@H](F)[C@H]3[C@@H]1CC[C@]2(C)O` (stereo partly specified), for which the RSA was 16.

Source of the values: ChEMBL document CHEMBL1132232, “7alpha-Iodo and 7alpha-fluoro steroids as androgen receptor-mediated imaging agents” (J Med Chem, 1999).
